# From patent publication US5236904A, “Erection-inducing methods and compositions” (Senetek, plc, priority 1989, dated 1993)
# “Also recorded” adds a separate entry of the source.
# Experiments:
# human males [1] = conditions: cited from earlier work; for priapism: treatment of impotence
# [2] = test system: males with psychogenic or neurogenic dysfunction, severe atherosclerosis not involved; conditions: cited from earlier work; for erection on intracavernosal injection: severe atherosclerosis not involved
# [3] = test system: males who are impotent due to severe atherosclerosis; conditions: cited from earlier work; for efficacy in impotence due to severe atherosclerosis: in vivo
# [4] = aqueous composition; cited from earlier work
# human males [5] = conditions: in vivo
# Procedure: Priapism is a serious, deleterious side effect of treatment of erectile insufficiency with these drugs. Beyond the embarrassment that may be caused for some men, priapism is usually painful, irreversibly damages erectile tissue, and, to be relieved, requires bleeding or pharmacological intervention (e.g., injection of a sympathomimetic drug such as adrenaline).
# Preferably 1 ml of the preferred composition is administered as a bolus by injection into a corpus cavernosum while the penis is constricted at its base with a tourniquet. About 5-10 minutes after the injection, the tourniquet is released and, if not already started before the tourniquet is released, sexual stimulation is begun.
# normal male = conditions: cited from earlier work
# [6] = test system: human suffering from impotence, of which severe atherosclerosis is a cause; test: Intracavernosal injection coupled with sexual stimulation in males with impotence caused by severe atherosclerosis; type: in vivo
# Procedure: Thus, between about 0.1 ml and about 5 ml, and preferably about 1 ml, of a physiologically acceptable composition comprising one of VIP or PHM or a mixture thereof and an alpha-adrenergic blocker is administered as a bolus by intracavernosal injection during, or prior to the initiation of, sexual stimulation and preferably with the penis constricted at its base for between about 1 minute and about 15 minutes (preferably about 5 minutes-about 10 minutes) after the injection.
molecule,measurement,setting,value
COc1ccc(Cc2nccc3cc(OC)c(OC)cc23)cc1OC [papaverine],pain after injection,human males [1]; even if priapism does not occur,"painful, burning sensation in the first two or so minutes after the injection"
same,fibrosis,human males [1]; repeated use,"undesirable, extensive intracavernous fibrosis"
same,priapism,human males [1],often results in priapism
same,erection on intracavernosal injection,[2],cause an erection sufficient for vaginal penetration
same,efficacy in impotence due to severe atherosclerosis,[3],ineffective; also recorded: not susceptible to treatment
CC(COc1ccccc1)N(CCCl)Cc1ccccc1 (centres unmarked) [phenoxybenzamine],priapism,human males [1],often results in priapism
same,erection on intracavernosal injection,[2],cause an erection sufficient for vaginal penetration
same,efficacy in impotence due to severe atherosclerosis,[3],not susceptible to treatment
Cc1ccc(N(CC2=NCCN2)c2cccc(O)c2)cc1 [phentolamine],duration of erection,[2]; compared with papaverine or phenoxybenzamine,significantly shorter duration
same,erection on intracavernosal injection,[2],causes an erection sufficient for vaginal penetration
same,efficacy in impotence due to severe atherosclerosis,[3],not susceptible to treatment
same,stability in solution,[4],lability
human vasoactive intestinal peptide [VIP],systemic side effects due to administration,human males [1]; background statement,flushing of the skin and hypotension
same,priapism or burning pain on induction of an erection,human males [5],does not entail priapism or the burning pain
same,"induction of erections, VIP alone coupled with sexual stimulation",[3]; impotent due to severe atherosclerosis,does not induce erections
same,erectile response with sexual stimulation,"normal male; as little as 1 μg (at 1 μg/ml of diluent), visual and/or vibration stimulation",facilitates full erection
same,erectile response without sexual stimulation,"normal male; up to 20 μg (at 20 μg/ml of diluent), no sexual stimulation",only slight swelling (slight tumescence) of the penis but not an erection
same,erection sufficient for vaginal penetration,"[6]; 30 μg neuropeptide together with alpha-adrenergic blocker, in most cases",sufficient to induce an erection sufficient for vaginal penetration
same,"treatment of impotence, neuropeptide in combination with an alpha-adrenergic blocker","[6]; intracavernosal injection with alpha-adrenergic blocker such as phentolamine or prazosin, coupled with sexual stimulation",treated effectively
same,"induction of erections, neuropeptide alone",[6]; without alpha-adrenergic blocker,not effective
